Experiments:
[1] = molecular target: T1, GTPase KRas (Homo sapiens, UniProt P01116, G12C); assay: Inhibition of KRAS G12C mutant (unknown origin) assessed as inhibition of SOS1 mediated nucleotide exchange incubated for 2 hrs in presence of GppNHp by fluorescence based analysis
[2] = molecular target: T1, GTPase KRas; assay: Inhibition of KRAS G12C mutant in human MIA PaCa-2 cells assessed as reduction in whole blood pERK level incubated for 4 hrs by HTRF assay; assay type: cell-based
[3] = molecular target: T1, GTPase KRas; assay: Inhibition of KRAS G12C mutant in human MIA PaCa-2 cells assessed as reduction in pERK level incubated for 4 hrs by HTRF assay; assay type: cell-based

Measured: IC50

T1 sequence (P01116 whole entry G12C): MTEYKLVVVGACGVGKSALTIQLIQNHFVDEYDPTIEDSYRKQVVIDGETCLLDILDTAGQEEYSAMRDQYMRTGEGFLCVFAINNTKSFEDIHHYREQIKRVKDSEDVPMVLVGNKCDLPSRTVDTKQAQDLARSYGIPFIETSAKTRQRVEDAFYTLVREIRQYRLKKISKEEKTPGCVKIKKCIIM

Cc1cc2c(nc(O[C@@H](C)[C@@H]3CCCN3C)c3nnn([C@H]4CCN(C(=O)/C=C/CF)[C@H](CC#N)C4)c32)c(F)c1-c1ccc2cnn(C)c2c1
≤ 50 nM: all assays above

COC/C=C/C(=O)N1CC[C@H](n2nnc3c(O[C@@H](C)[C@@H]4CCCN4C)nc4c(F)c(-c5nn(C)c6ccccc56)c(C)cc4c32)C[C@H]1CC#N
≤ 50 nM: all assays above

C=C(F)C(=O)N1CC[C@H](n2nnc3c(O[C@@H](C)[C@@H]4CCCN4C)nc4c(F)c(-c5ncc(F)c6ccccc56)c(C)cc4c32)C[C@H]1CC#N
≤ 50 nM: all assays above

Cc1cccc(-c2c(C)cc3c(nc(N4CC(C)(N(C)C)C4)c4nnn([C@H]5CCN(C(=O)/C=C/CF)[C@H](CC#N)C5)c43)c2F)c1Cl
≤ 50 nM: all assays above

COC/C=C/C(=O)N1CC[C@H](n2nnc3c(O[C@@H](C)[C@@H]4CCCN4C)nc4c(F)c(-c5ccc(F)cc5)c(C)cc4c32)C[C@H]1CC#N
≤ 50 nM: all assays above

COC/C=C/C(=O)N1CC[C@H](n2nnc3c(O[C@@H](C)[C@@H]4CCCN4C)nc4c(F)c(-c5ncc(F)c6ccccc56)c(C)cc4c32)C[C@H]1CC#N
≤ 50 nM: all assays above

— ChEMBL document CHEMBL5257148, “Novel Tricyclic Compounds as KRAS Inhibitors for Treating Cancer” (ACS Med Chem Lett, 2023)
